Measurements published in patent US10954287B2, “Ras binding peptides and methods of use” (Ra Pharmaceuticals, Inc., priority 2016, dated 2021).
*1 amine or outer side, *2 acyl side, *3 side chain or, on linkers, in order; H or OH if unused. Where a SMILES comes first, the peptide text is derived from it. [ ]: non-standard residue; d: D form. ξ: configuration not given here. DAPTZAC3 = (S)-3-(4-(3-acrylamidopropyl)-1H-1,2,3-triazol-1-yl)-2-aminopropanoic acid, C=CC(=O)NCCCc1cn(C[C@H](N[*:1])C(=O)[*:2])nn1; Trp(7-aza) = N[C@@H](Cc1c[nH]c2ncccc12)C(=O)O; NMePhe(4-F) = CN[C@@H](Cc1ccc(F)cc1)C(=O)O; Phg = N[C@H](C(=O)O)c1ccccc1; Tle = CC(C)(C)[C@H](N)C(=O)O; ξPhg = NC(C(=O)O)c1ccccc1; NMeA = CN[C@@H](C)C(=O)O; Pra = C#CC[C@H](N)C(=O)O; Nva = CCC[C@H](N)C(=O)O; PEG1 = NCCOCCC(=O)O; Sar = CNCC(=O)O

Tested on: GMPPNP-loaded H-Ras or GTP-loaded K-Ras
Assay: Fluorescence polarization competition assay with TAMRA-labeled probe R4007
Assay type: binding, human
Conditions: 120 nM Ras, 30 nM probe R4007, 60 minutes at room temperature; read-out: Probe displacement (nM IC50)
Method in brief: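 120 nM GMPPNP-loaded H-Ras or GTP-loaded K-Ras was preincubated with 30 nM TAMRA-labeled R4007 probe for 20 min at room temperature in Tris pH 7.5 buffer with MgCl2, EDTA and Triton X-100. Serially diluted competitor was then added for 60 min. Polarization was read at 535/595 nm, with Ki from a one-site Ki fit and IC50 from probe displacement.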

| Compound | IC50 [nM] |
| --- | --- |
| CCC[C@H](NC(C)=O)C(=O)N[C@H]1CSCc2cccc(c2)CSC[C@@H](C(=O)N[C@H](CO)C(=O)N[C@@H](CCCCN)C(=O)NCC(=O)N[C@@H](CSSC(C)(C)C)C(=O)N[C@H](C(=O)N[C@H](C(=O)N[C@@H](CCSC)C(=O)O)[C@@H](C)CC)C(C)C)NC(=O)CN(C)C(=O)[C@H](Cc2ccc(F)cc2)N(C)C(=O)[C@H](Cc2ccc(O)cc2)NC(=O)[C@H](Cc2c[nH]c3ncccc23)NC(=O)[C@H](c2ccccc2)NC(=O)[C@H](C)N(C)C(=O)[C@H](Cc2c[nH]cn2)NC(=O)[C@H](CCCCN)NC(=O)[C@H](C(C)(C)C)NC(=O)[C@H](Cc2ccc(O)cc2)NC1=O (relative stereo) [Compound R4109, ACE-NVA-CYS*-TYR-TBG-LYS-HIS-NMA-PHG-7AW-TYR-MFF-SAR-CYS*-DSER-LYS-GLY-TDSPA-VAL-ILE-MET] | 14.2 |
| CCC[C@H](NC(C)=O)C(=O)N[C@H]1CSCc2cccc(c2)CSC[C@@H](C(N)=O)NC(=O)CN(C)C(=O)[C@H](Cc2ccc(F)cc2)N(C)C(=O)[C@H](Cc2ccc(O)cc2)NC(=O)[C@H](Cc2c[nH]c3ncccc23)NC(=O)[C@H](C2CCCCC2)NC(=O)[C@H](C)N(C)C(=O)[C@H](Cc2c[nH]cn2)NC(=O)[C@H](CCCCN)NC(=O)[C@H](C(C)(C)C)NC(=O)[C@H](Cc2ccc(O)cc2)NC1=O (relative stereo) [Compound R4149, ACE-NVA-CYS*-TYR-TBG-LYS-HIS-NMA-CHG-7AW-TYR-MFF-SAR-CYS*-NH2] | 6260 |
| ACE-NVA-SER-TYR-TBG-ALA-DAPTZAC3-NMA-RPHG-7AW-TYR-MFF-SAR-SER-NH2 (Ac-[Nva]SY[Tle]A[DAPTZAC3][NMeA][ξPhg][Trp(7-aza)]Y[NMePhe(4-F)][Sar]S-NH2) [Compound R4148, linear] | 6000 |
| CCC[C@H](NC(C)=O)C(=O)N[C@H]1CSCc2cccc(c2)CSC[C@@H](C(=O)N[C@H](CO)C(=O)N[C@@H](CCCCN)C(=O)NCC(=O)N[C@@H](CS)C(=O)N[C@H](C(=O)N[C@H](C(=O)N[C@@H](CCSC)C(=O)O)[C@@H](C)CC)C(C)C)NC(=O)CN(C)C(=O)[C@H](Cc2ccc(F)cc2)N(C)C(=O)[C@H](Cc2ccc(O)cc2)NC(=O)[C@H](Cc2c[nH]c3ncccc23)NC(=O)[C@H](c2ccccc2)NC(=O)[C@H](C)N(C)C(=O)[C@H](Cc2c[nH]cn2)NC(=O)[C@H](CCCCN)NC(=O)[C@H](C(C)(C)C)NC(=O)[C@H](Cc2ccc(O)cc2)NC1=O (relative stereo) [Compound R4105, ACE-NVA-CYS*-TYR-TBG-LYS-HIS-NMA-PHG-7AW-TYR-MFF-SAR-CYS*-DSER-LYS-GLY-CYS-VAL-ILE-MET] | 3.31 |
| C#CC[C@@H]1NC(=O)CN(C)C(=O)[C@H](Cc2ccc(F)cc2)N(C)C(=O)[C@H](Cc2ccc(O)cc2)NC(=O)[C@H](Cc2c[nH]c3ncccc23)NC(=O)[C@H](c2ccccc2)NC(=O)[C@H](C)N(C)C(=O)[C@H](Cc2c[nH]cn2)NC(=O)[C@H](CCCCN)NC(=O)[C@H](C(C)(C)C)NC(=O)[C@H](Cc2ccc(O)cc2)NC(=O)CCOCCNC1=O [Compound R4139, AEP*-TYR-TBG-LYS-HIS-NMA-PHG-7AW-TYR-MFF-SAR-PRG*] (cyclo([PEG1]Y[Tle]KH[NMeA][Phg][Trp(7-aza)]Y[NMePhe(4-F)][Sar][Pra])) | 522 |
| CCC[C@H](NC(=O)CCCCCCNC(=O)[C@H](CC(C)C)NC(=O)[C@@H](O)[C@H](N)Cc1ccccc1)C(=O)N[C@H]1CSCc2cccc(c2)CSC[C@@H](C(N)=O)NC(=O)CN(C)C(=O)[C@H](Cc2ccc(F)cc2)N(C)C(=O)[C@H](Cc2ccc(O)cc2)NC(=O)[C@H](Cc2c[nH]c3ncccc23)NC(=O)[C@H](c2ccccc2)NC(=O)[C@H](C)N(C)C(=O)[C@H](Cc2c[nH]cn2)NC(=O)[C@H](CCCCN)NC(=O)[C@H](C(C)(C)C)NC(=O)[C@H](Cc2ccc(O)cc2)NC1=O (relative stereo) [Compound R4106, UBX-AHPA-NVA-CYS*-TYR-TBG-LYS-HIS-NMA-PHG-7AW-TYR-MFF-SAR-CYS*-NH2] | 8.38 |
